Read-outs that look alike come from different tables or passages of the source. Some results are limits rather than exact numbers.

The term IC50 denotes the concentration that inhibits the measured activity by half.

The assay deals with Cap-dependent endonuclease (CEN); RNP fraction containing PB1•PB2•PA complex (Influenza A virus, UniProt P15659). Briefly: Measurement of cap-dependent endonuclease (CEN) inhibitory activity. In kind it is biochemical, influenza A/WSN/33 virus.
Where [1] appears, read: statement in text following Table 36, same CEN assay, read-out: IC50 (CEN).
The mark [2] stands for this setting: RNP enzyme from A/WSN/33 virus, capped Cy3/BHQ2-labelled 30mer RNA substrate, 60 minutes at room temperature, read-out: CEN IC50.

Take `O=C(O)c1cn(CC2(C(=O)Nc3ccccc3)CCCC2)cc(O)c1=O` [Example 232]: under setting [1], the IC50 is no more than 1 µM.
As to `O=C(O)c1cn(Cc2ccccc2-c2ccc(NCC3CCCCC3)nc2)cc(O)c1=O` [Example 52], the IC50 under setting [2] amounted to 0.459 µM.
In the case of `O=C(O)c1cn(CC2(n3ccc4cc(Cl)cnc43)CCCC2)cc(O)c1=O` [Example 240], the IC50 under setting [1] was no more than 1 µM.
`O=C(O)c1cn(CC2CCCC2)cc(O)c1=O` [Example 18]: under setting [2], the 50% inhibitory concentration (IC50) worked out at 0.845 µM.
The same measure, in the same setting: with `O=C(O)c1cn(CC2(c3cccc(C(F)(F)F)c3)CCCC2)cc(O)c1=O` [Example 167] the figure was 0.012 µM; with `CCCCS(=O)(=O)NC(=O)c1cn(Cc2ccccc2-c2ccccc2)cc(O)c1=O` [Example 197], 0.531 µM; with `N#Cc1ccccc1CN1CCCCC1Cn1cc(O)c(=O)c(C(=O)O)c1` (stereo not drawn) [Example 116], 0.221 µM.
With `O=c1c(O)cn(CC2(c3cccc(F)c3)CCCC2)cc1-c1nnn[nH]1` [Example 233], the IC50 under setting [1] was no more than 1 µM.
On to `O=C(O)c1cn(Cc2ccccc2-c2ccccc2)cc(O)c1=O` [Example 10], for which the IC50 under setting [2] stood at 0.219 µM.
In the case of `Cn1cc(C2(Cn3cc(O)c(=O)c(C(=O)O)c3)CCCC2)c2ccccc21` [Example 244], the concentration for half-maximal inhibition (IC50) under setting [1] is no more than 1 µM.
On to `O=C(O)c1cn(CC2(c3ccccc3)CCOCC2)cc(O)c1=O` [Example 183], for which the IC50 under setting [2] turned out to be 0.177 µM.
In the case of `O=C(O)c1cn(CC2(c3ccnc(NCC4CCCCC4)c3)CCCC2)cc(O)c1=O` [Example 239], under setting [1], the 50% inhibitory concentration (IC50) is no more than 1 µM.
For `O=C(O)c1cn(CC2(c3nc4ccccc4s3)CCCC2)cc(O)c1=O` [Example 173], the IC50 under setting [2] was 0.047 µM.
With `O=C(O)c1cn(CC2(c3ccc4c(c3)OCO4)CCCC2)cc(O)c1=O` [Example 171], the IC50 under setting [2] worked out at 0.016 µM.
Turning to `CC(=O)c1ccc(-c2ccccc2Cn2cc(O)c(=O)c(C(=O)O)c2)cc1` [Example 22], the 50% inhibitory concentration (IC50) under setting [2] stood at 0.217 µM.
Same read-out and setting: for `O=C(NS(=O)(=O)C1CC1)c1cn(Cc2ccccc2-c2ccccc2)cc(O)c1=O` [Example 195] the value was 0.677 µM.
Consider `O=C(O)c1cn(CC2(C(=O)c3ccccc3)CCCC2)cc(O)c1=O` [Example 231], for which the IC50 under setting [1] was no more than 1 µM.
For `O=C(O)c1cn(CC2CCCCN2C(=O)OCc2ccccc2F)cc(O)c1=O` (stereo not drawn) [Example 127], under setting [2], the half-inhibitory concentration (IC50) came out at 0.313 µM.
Consider `Cn1cc(C2(Cn3cc(O)c(=O)c(C(=O)O)c3)CCCC2)c2ncccc21` [Example 242], for which, under setting [1], the IC50 was no more than 1 µM.
Regarding `O=c1c(O)cn(Cc2ccccc2-c2ccc(F)c(Cl)c2)cc1O` [Example 222], under setting [2], the 50% inhibitory concentration (IC50) is 0.513 µM.
`O=C(O)c1cn(CC2(c3ccnc(-n4cccn4)c3)CCCC2)cc(O)c1=O` [Example 238]: the IC50 under setting [1] is no more than 1 µM.
As to `O=C(O)c1cn(CC2(c3cccc(N4CCCS4(=O)=O)c3)CCCC2)cc(O)c1=O` [Example 236], the IC50 under setting [1] was no more than 1 µM.
Regarding `O=C(O)c1cn(CC2(n3ccc4cccnc43)CCCC2)cc(O)c1=O` [Example 185], the IC50 under setting [2] was found to be 0.005 µM.
On the same count and under the same terms, for `O=C(O)c1cn(CC2(c3cccc4ccccc34)CCCC2)cc(O)c1=O` [Example 178] the value was 0.028 µM.
As to `O=C(O)c1cn(CC2(n3cc(C(F)(F)F)c4cccnc43)CCCC2)cc(O)c1=O` [Example 243], the half-maximal inhibitory concentration (IC50) under setting [1] was no more than 1 µM.
Turning to `CC(C)(Cn1cc(O)c(=O)c(C(=O)O)c1)c1ccccc1` [Example 227], under setting [1], the concentration for half-maximal inhibition (IC50) is no more than 1 µM.
As to `O=C(O)c1cn(CC2(c3ccccn3)CCCC2)cc(O)c1=O` [Example 177], under setting [2], the IC50 was found to be 0.11 µM.
With `O=C(O)c1cn(Cc2cccn2-c2ccccc2)cc(O)c1=O` [Example 226], the IC50 under setting [1] was no more than 1 µM.
`O=C(O)c1cn(CC2(c3ccccc3)CCCC2)cc(O)c1=O` [Example 112]: under setting [2], the half-maximal inhibitory concentration (IC50) came out at 0.061 µM.
Same read-out and setting: for `COc1ncc(-c2ccccc2Cn2cc(O)c(=O)c(C(=O)O)c2)cn1` [Example 46] the value was 0.325 µM.
Still for that read-out and setting: with `O=C(O)c1cn(CC2(n3ccc4ccccc43)CCCC2)cc(O)c1=O` [Example 186] the figure was 0.035 µM.
Consider `O=C(O)c1cn(CC2(c3cccc(N4CCCC4=O)c3)CCCC2)cc(O)c1=O` [Example 234], for which the IC50 under setting [1] is no more than 1 µM.
In the case of `O=C(O)c1cn(CC2(c3cccc(N4CCCCC4=O)c3)CCCC2)cc(O)c1=O` [Example 235], the IC50 under setting [1] is no more than 1 µM.
Turning to `O=C(O)c1cn(CC2(c3ccccc3)Cc3ccccc3C2)cc(O)c1=O` [Example 182], under setting [2], the IC50 came out at 0.278 µM.
The same measure, in the same setting: for `O=C(O)c1cn(C[C@@H]2CCCN2c2ccccc2)cc(O)c1=O` [Example 57] the value was 0.426 µM.
Regarding `Cn1cc(C2(Cn3cc(O)c(=O)c(C(=O)NS(C)(=O)=O)c3)CCCC2)c2ccccc21` [Example 246], under setting [1], the concentration for half-maximal inhibition (IC50) is no more than 1 µM.
